The values that follow come from US10273224B2, “Substituted pyrimidine compounds, compositions and medicinal applications thereof” (JUBILANT BIOSYS LIMITED, priority 2013, dated 2019).

As a reminder, the IC50 is the concentration that inhibits the measured activity by half.

Where a name gives a salt, the structure may show the parent alone.

The target of this assay is T1, EGFR (L858R & T790M) (Homo sapiens, UniProt P00533, L858R/T790M).
T1 construct: GST; purchased Proqinase
Kind of assay: EGFR (L858R & T790M) inhibition assay, HTRF method. To be noted: biochemical HTRF; EGFR (T790M/L858R) 2.5 nM, ATP 5 μM, 60 min room temperature. How it is done:
Example 25: Biological Activity: EGFR T790M Assay Protocol
The objective of the experiment is to find the IC50 for the compounds using HTRF method.
Reagents for Enzyme Assay:
1. Enzyme Assay Buffer: 60 mM HEPES (pH 7.4), 50 mM NaCl, 20 mM MgCl2, 5 mM MnCl2, filter using 0.2 µm pore size, store at 4° C.
Supplements (add fresh to the enzyme buffer): Make 1M DTT stock, 5% BSA stock and 0.1M Na3OV4 stored at 4° C. Enzyme assay buffer 50 ml, 1 M DTT 100 μl, 5% BSA 500 μl, 0.1M Na3OV4 50 μl.
2. GST-hEGFR (L858R), active: EGFR (T790M/L858R), active (Proqinase), 3.6 μM stock; 2.5 nM in final assay.
3. Gastrin Precusor-Biotinylated: Gastrin precursor (Tyr87) biotinylated peptide (EEAY*GWM), Cell Signaling Tech 1310, Lot-7, Want final 0.5 μM in assay
4. ATP: 10 mM stock in 100 μl Enzyme assay buffer pH 7.4 prepared freshly, want 5 μM in final assay.
5. Test compounds: Dissolve powders in 100% DMSO to a final stock concentration of 10 mM (volume in μL to add for 10 mM=mg powder×10^5/MW). Final comp concentration in the assay plate is starting at 10 μM.
1. HTRF buffer: 50 mM Tris-HCl, pH-7.5, 100 mM NaCl, 0.1% BSA, 0.05% Tween20, 0.5 mM EDTA, filter using 0.2 µm pore size, store at 4° C.
Phycolink® Streptavidin-Allophycocyanin (SA-APC) Prozyme, Cat. #PJ25S, Lot #896 085, 2.06 mg/mL, APC concentration is 11.6 μM, streptavidin concentration is 15.5 μM. Want 12 nM final in assay (based on streptavidin concentration).
2. Europium-W1024-PT-66 Anti Phospho Tyrosine Antibody: Perkin Elmer (AD0068), monoclonal IgG1 that recognizes phospho tyrosine peptide 100 μg/ml stock. Want 0.1 nM final in assay.
• 1. Make the compound dilution by TECAN as per the above scheme. • 2. Add 16 μl of diluted compound to the assay plate by using TECAN • 3. Add 10 μl of enzyme mix to each well except mins. • 4. Add 20 μl of substrate and ATP mix into each well of the assay plate manually. • 5. Incubate the plate at room temperature for 60 min with shaking. • 6. Meanwhile prepare the HTRF mix and add 75 μl to the HTRF plate. • 7. When the incubation is over, transfer 10 μl of the reaction mixture to the HTRF assay plate and incubate for 30 min at room temperature with shaking. • 8. Take the reading in Pherastar (ext 337 nm, em 665 & 620 nm). • 9. Analyze the results using Graphpad prism after calculation the z factor, signal window and % inhibition to get the IC50.
Compounds having IC50<10 nM are designated as “A”; 10-100 nM are designated as “B”; and >100 nM as “C”.
A general note: In TR-FRET formats the signal depends on donor and acceptor labels being close together.

T1 sequence (P00533 25-1210 T790M/L858R): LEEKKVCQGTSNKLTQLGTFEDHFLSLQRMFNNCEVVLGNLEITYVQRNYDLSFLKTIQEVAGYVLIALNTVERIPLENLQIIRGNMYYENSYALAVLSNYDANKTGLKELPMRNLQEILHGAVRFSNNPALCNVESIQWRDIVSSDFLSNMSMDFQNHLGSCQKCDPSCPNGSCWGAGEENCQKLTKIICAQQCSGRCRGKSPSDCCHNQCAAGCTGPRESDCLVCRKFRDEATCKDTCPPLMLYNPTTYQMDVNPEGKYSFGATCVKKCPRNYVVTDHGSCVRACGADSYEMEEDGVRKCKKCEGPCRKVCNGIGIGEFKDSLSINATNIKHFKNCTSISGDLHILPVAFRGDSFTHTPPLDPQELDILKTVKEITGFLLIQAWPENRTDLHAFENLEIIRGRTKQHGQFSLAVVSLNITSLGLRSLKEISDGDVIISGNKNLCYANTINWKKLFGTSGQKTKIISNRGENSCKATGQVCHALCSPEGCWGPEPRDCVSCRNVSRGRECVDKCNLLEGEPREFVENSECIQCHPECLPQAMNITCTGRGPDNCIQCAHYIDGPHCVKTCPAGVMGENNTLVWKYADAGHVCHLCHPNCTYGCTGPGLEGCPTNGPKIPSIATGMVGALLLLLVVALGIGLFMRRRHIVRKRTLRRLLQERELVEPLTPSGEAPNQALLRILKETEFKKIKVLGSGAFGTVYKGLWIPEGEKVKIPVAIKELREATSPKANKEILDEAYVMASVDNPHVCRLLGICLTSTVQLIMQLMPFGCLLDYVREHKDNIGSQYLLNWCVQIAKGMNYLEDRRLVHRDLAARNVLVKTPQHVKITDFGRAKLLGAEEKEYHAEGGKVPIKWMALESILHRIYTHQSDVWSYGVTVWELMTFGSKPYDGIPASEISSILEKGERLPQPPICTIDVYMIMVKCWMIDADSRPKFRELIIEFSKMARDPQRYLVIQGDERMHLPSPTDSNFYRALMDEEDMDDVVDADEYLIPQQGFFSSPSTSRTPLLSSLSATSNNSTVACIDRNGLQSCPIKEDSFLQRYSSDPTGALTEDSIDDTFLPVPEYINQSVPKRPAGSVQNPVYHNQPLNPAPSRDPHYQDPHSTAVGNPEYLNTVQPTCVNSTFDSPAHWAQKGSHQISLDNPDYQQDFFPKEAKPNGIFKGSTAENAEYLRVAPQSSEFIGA

Take `CN1CCC(n2cc(Nc3ncc(Cl)c(Nc4cccc(NC(=O)C=C5CCCCC5)c4)n3)cn2)CC1` [Compound I-28, N-(3-((5-chloro-2-((1-(1-methylpiperidin-4-yl)-1H-pyrazol-4-yl)amino)pyrimidin-4-yl)amino)phenyl)-2-cyclohexylideneacetamide]: the IC50 was more than 100 nM.

For `CN1CCC(n2cc(Nc3ncc(Cl)c(Nc4cccc(NC(=O)C=C5CCC5)c4)n3)cn2)CC1` [Compound I-29, N-(3-((5-chloro-2-((1-(1-methylpiperidin-4-yl)-1H-pyrazol-4-yl)amino)pyrimidin-4-yl)amino)phenyl)-2-cyclobutylideneacetamide], the IC50 was more than 100 nM.

Consider `CN1CCC(n2cc(Nc3ncc(Cl)c(Nc4cccc(NC(=O)C=C5CCCC5)c4)n3)cn2)CC1` [Compound I-30, N-(3-((5-chloro-2-((1-(1-methylpiperidin-4-yl)-1H-pyrazol-4-yl)amino)pyrimidin-4-yl)amino)phenyl)-2-cyclopentylideneacetamide], for which the IC50 was more than 100 nM.

On to `C=CC(=O)Nc1cccc(Nc2nc(Nc3cnn(C4COC4)c3)ncc2Cl)c1` [Compound I-31, N-(3-((5-chloro-2-((1-(oxetan-3-yl)-1H-pyrazol-4-yl)amino)pyrimidin-4-yl)amino)phenyl)acrylamide], for which the IC50 lay in the range of 10 to 100 nM.

Consider `C#CC(=O)Nc1cccc(Nc2nc(Nc3cnn(C)c3)ncc2Cl)c1` [Compound I-32, N-(3-((5-chloro-2-((1-methyl-1H-pyrazol-4-yl)amino)pyrimidin-4-yl)amino)phenyl)propiolamide], for which the IC50 fell in the range of 10 to 100 nM.

Take `C=C(F)C(=O)Nc1cccc(Nc2nc(Nc3cnn(C)c3)ncc2Cl)c1` [Compound I-33, N-(3-((5-chloro-2-((1-methyl-1H-pyrazol-4-yl)amino)pyrimidin-4-yl)amino)phenyl)-2-fluoroacrylamide]: the IC50 is more than 100 nM.

In the case of `C=CC(=O)Nc1cccc(Nc2nc(Nc3cn(C)nc3C)ncc2Cl)c1` [Compound I-34, N-(3-((5-chloro-2-((1,3-dimethyl-1H-pyrazol-4-yl)amino)pyrimidin-4-yl)amino)phenyl)acrylamide], the 50% inhibitory concentration (IC50) is less than 10 nM.

For the compound `C=CC(=O)Nc1cc(Cl)cc(Nc2nc(Nc3cnn(C)c3)ncc2Cl)c1` [Compound I-35, N-(3-chloro-5-((5-chloro-2-((1-methyl-1H-pyrazol-4-yl)amino)pyrimidin-4-yl)amino)phenyl)acrylamide], the IC50 is less than 10 nM.

Take `C=CC(=O)Nc1cccc(Nc2nc(Nc3cnn(C4CCC(O)C4)c3)ncc2Cl)c1` (stereo not drawn) [Compound I-36, N-(3-((5-chloro-2-((1-(3-hydroxycyclopentyl)-1H-pyrazol-4-yl)amino)pyrimidin-4-yl)amino)phenyl)acrylamide]: the half-inhibitory concentration (IC50) fell in the range of 10 to 100 nM.

Turning to `C=CC(=O)Nc1cccc(Nc2nc(Nc3cnn(C4CCC(O)C4)c3)ncc2F)c1` (stereo not drawn) [Compound I-37, N-(3-((5-fluoro-2-((1-(3-hydroxycyclopentyl)-1H-pyrazol-4-yl)amino)pyrimidin-4-yl)amino)phenyl)acrylamide], the IC50 is more than 100 nM.

As to `C=CC(=O)Nc1cccc(Nc2nc(Nc3cnn(C4CCCC(O)C4)c3)ncc2Cl)c1` (stereo not drawn) [Compound I-38, N-(3-((5-chloro-2-((1-(3-hydroxycyclohexyl)-1H-pyrazol-4-yl)amino)pyrimidin-4-yl)amino)phenyl)acrylamide], the IC50 was more than 100 nM.

In the case of `C=CC(=O)Nc1ccc(F)c(Nc2nc(Nc3cnn(C)c3)ncc2Cl)c1` [Compound I-39, N-(3-((5-chloro-2-((1-methyl-1H-pyrazol-4-yl)amino)pyrimidin-4-yl)amino)-4-fluorophenyl)acrylamide], the IC50 is less than 10 nM.

Take `C=CC(=O)Nc1cccc(Nc2nc(Nc3ncc(N4CCN(C)CC4)s3)ncc2Cl)c1` [Compound I-40, N-(3-((5-chloro-2-((5-(4-methylpiperazin-1-yl)thiazol-2-yl)amino)pyrimidin-4-yl)amino)phenyl)acrylamide]: the IC50 was 10 to 100 nM.

Consider `C=CC(=O)Nc1cccc(Nc2nc(Nc3nnc(N4CCN(C)CC4)s3)ncc2Cl)c1` [Compound I-41, N-(3-((5-chloro-2-((5-(4-methylpiperazin-1-yl)-1,3,4-thiadiazol-2-yl)amino)pyrimidin-4-yl)amino)phenyl)acrylamide], for which the IC50 was 10 to 100 nM.

Take `C=CC(=O)Nc1cccc(Nc2nc(Nc3cc(CN4CCC4)n(C)n3)ncc2Cl)c1` [Compound I-42, N-(3-((2-((5-(azetidin-1-ylmethyl)-1-methyl-1H-pyrazol-3-yl)amino)-5-chloropyrimidin-4-yl)amino)phenyl)acrylamide, acetate salt]: the IC50 was more than 100 nM.

For the compound `C=CC(=O)Nc1cccc(Nc2nc(Nc3cnn(C4CCNC(=O)C4)c3)ncc2Cl)c1` (stereo not drawn) [Compound I-43, N-(3-((5-chloro-2-((1-(2-oxopiperidin-4-yl)-1H-pyrazol-4-yl)amino)pyrimidin-4-yl)amino)phenyl)acrylamide], the IC50 fell in the range of 10 to 100 nM.

As for `C=CC(=O)Nc1cccc(Nc2nc(Nc3nnc(C(F)(F)F)s3)ncc2Cl)c1` [Compound I-44, N-(3-((5-chloro-2-((5-(trifluoromethyl)-1,3,4-thiadiazol-2-yl)amino)pyrimidin-4-yl)amino)phenyl)acrylamide], the IC50 was more than 100 nM.

As to `C=CC(=O)Nc1cccc(Nc2nc(Nc3cnn(C4CCOCC4)c3)ncc2Cl)c1` [Compound I-45, N-(3-((5-chloro-2-((1-(tetrahydro-2H-pyran-4-yl)-1H-pyrazol-4-yl)amino)pyrimidin-4-yl)amino)phenyl)acrylamide], the concentration for half-maximal inhibition (IC50) lay in the range of 10 to 100 nM.

Turning to `C=CC(=O)Nc1cccc(Nc2nc(Nc3cc(CN4CCOCC4)n(C)n3)ncc2Cl)c1` [Compound I-46, N-(3-((5-chloro-2-((1-methyl-5-(morpholinomethyl)-1H-pyrazol-3-yl)amino)pyrimidin-4-yl)amino)phenyl)acrylamide], the IC50 was more than 100 nM.

As for `C=CC(=O)Nc1cccc(Oc2nc(Nc3cnn(CCO)c3)ncc2Cl)c1` [Compound I-47, N-(3-((5-chloro-2-((1-(2-hydroxyethyl)-1H-pyrazol-4-yl)amino)pyrimidin-4-yl)oxy)phenyl)acrylamide], the IC50 is less than 10 nM.

With `C=CC(=O)Nc1cccc(Nc2nc(Nc3cnn(C4CC5CCC(C4)N5C)c3)ncc2Cl)c1` (stereo not drawn) [Compound I-48, N-(3-((5-chloro-2-((1-(8-methyl-8-azabicyclo[3.2.1]octan-3-yl)-1H-pyrazol-4-yl)amino)pyrimidin-4-yl)amino)phenyl)acrylamide], the IC50 fell in the range of 10 to 100 nM.

For the compound `C=CC(=O)Nc1cccc(Nc2nc(Nc3cnn(C4CCOC4)c3)ncc2Cl)c1` (stereo not drawn) [Compound I-49, N-(3-((5-chloro-2-((1-(tetrahydrofuran-3-yl)-1H-pyrazol-4-yl)amino)pyrimidin-4-yl)amino)phenyl)acrylamide], the IC50 lay within 10 to 100 nM.

As to `CN1CCC(n2cc(Nc3ncc(F)c(Nc4cccc(NC(=O)C=C5CCCCC5)c4)n3)cn2)CC1` [Compound I-50, 2-cyclohexylidene-N-(3-((5-fluoro-2-((1-(1-methylpiperidin-4-yl)-1H-pyrazol-4-yl)amino)pyrimidin-4-yl)amino)phenyl)acetamide], the half-maximal inhibitory concentration (IC50) is more than 100 nM.

In the case of `C/C=C/C(=O)Nc1cccc(Nc2nc(Nc3cnn(C4CCN(C)CC4)c3)ncc2Cl)c1` [Compound I-51, (E)-N-(3-((5-chloro-2-((1-(1-methylpiperidin-4-yl)-1H-pyrazol-4-yl)amino)pyrimidin-4-yl)amino)phenyl)but-2-enamide], the IC50 is more than 100 nM.
